System: recombinant NL4-3 virus (Renilla luciferase in nef, Gag P373S; NLRluc)
Assay: HIV Cell Culture Assay (luciferase reporter virus in MT-2 cells)
Type: cell-based
Conditions: luciferase activity
Protocol: MT-2 cells and 293T cells were obtained from the NIH AIDS Research and Reference Reagent Program. MT-2 cells were propagated in RPMI 1640 media supplemented with 10% heat inactivated fetal bovine serum, […]. The 293T cells were propagated in DMEM media supplemented with 10% heat inactivated fetal bovine serum (FBS), 100 units/mL penicillin G and 100 μg/mL streptomycin. The proviral DNA clone of NL4-3 was obtained from the NIH AIDS Research and Reference Reagent Program. A recombinant NL4-3 virus, in which a section of the nef gene from NL4-3 was replaced with the Renilla luciferase gene, was used as a reference virus. In addition, residue Gag P373 was converted to P373S. Briefly, the recombinant virus was prepared by transfection of the altered proviral clone of NL4-3. Transfections were performed in 293T cells using LipofectAMINE PLUS from Invitrogen (Carlsbad, Calif.), according to manufacturer's instruction. The virus was titered in MT-2 cells using luciferase enzyme activity as a marker. Luciferase was quantitated using the Dual Luciferase kit from Promega (Madison, Wis.), with modifications to the manufacturer's protocol. The diluted Passive Lysis solution was pre-mixed with the re-suspended Luciferase Assay Reagent and the re-suspended Stop & Glo Substrate (2:1:1 ratio). Fifty (50) μL of the mixture was added to each aspirated well on assay plates and luciferase activity was measured immediately on a Wallac TriLux (Perkin-Elmer). Antiviral activities of inhibitors toward the recombinant virus were quantified by measuring luciferase activity in cells infected for 4-5 days with NLRluc recombinants in the presence serial dilutions of the inhibitor. Table 1 is the key for the data in Table 2.

[1] = Renilla, NL43, MT-2 cells infected for 4-5 days with NLRluc recombinants, reported as group A/B
[2] = Renilla, NL43, MT-2 cells infected for 4-5 days with NLRluc recombinants

| Compound | EC50 [1] | EC50 [2] | other results |
| --- | --- | --- | --- |
| C=C(C)[C@@H]1CC[C@]2(NCCN3C[C@H]4C[C@@H]3CS4(=O)=O)CC[C@]3(C)[C@H](CC[C@@H]4[C@@]5(C)CC=C(C6=CC7C(C6)C7C(=O)O)C(C)(C)[C@@H]5CC[C@]43C)[C@@H]12 (single isomer, unassigned) [Example B4] | < 100 nM |  |  |
| C=C(C)[C@@H]1CC[C@]2(NCCN3C[C@H]4C[C@@H]3CS4(=O)=O)CC[C@]3(C)[C@H](CC[C@@H]4[C@@]5(C)CC=C(C6=CC7C(C6)C7C(=O)O)C(C)(C)[C@@H]5CC[C@]43C)[C@@H]12 (single isomer, unassigned) [Example B5] |  |  | EC50 (MT-2 cells infected for 4-5 days with NLRluc recombinants, reported as group A/B): < 100 nM |
| C=C(C)[C@@H]1CC[C@]2(NCCN3C[C@@H]4C[C@H]3CO4)CC[C@]3(C)[C@H](CC[C@@H]4[C@@]5(C)CC=C(C6=CC7C(C6)C7C(=O)O)C(C)(C)[C@@H]5CC[C@]43C)[C@@H]12 (single isomer, unassigned) [Example B6] |  | 1.42 nM |  |
| C=C(C)[C@@H]1CC[C@]2(NCCN3C[C@@H]4C[C@H]3CO4)CC[C@]3(C)[C@H](CC[C@@H]4[C@@]5(C)CC=C(C6=CC7C(C6)C7C(=O)O)C(C)(C)[C@@H]5CC[C@]43C)[C@@H]12 (single isomer, unassigned) [Example B7] |  |  | EC50 (MT-2 cells infected for 4-5 days with NLRluc recombinants): 2.28 nM |
| C=C(C)[C@@H]1CC[C@]2(NC(=O)CN3C[C@@H]4CC[C@H]3C4)CC[C@]3(C)[C@H](CC[C@@H]4[C@@]5(C)CC=C(c6ccc(C(=O)O)cc6)C(C)(C)[C@@H]5CC[C@]43C)[C@@H]12 [Example 1, 4-((1R,3aS,5aR,5bR,7aR,11aS,11bR,13aR,13bR)-3a-(2-((1S,4R)-2-azabicyclo[2.2.1]heptan-2-yl)acetamido)-5a,5b,8,8,11a-pentamethyl-1-(prop-1-en-2-yl)-2,3,3a,4,5,5a,5b,6,7,7a,8,11,11a,11b,12,13,13a,13b-octadecahydro-1H-cyclopenta[a]chrysen-9-yl)benzoic acid] |  | 3.65 nM |  |
| C=C(C)[C@@H]1CC[C@]2(NC(=O)CN3C[C@@H]4C[C@H]3CS4(=O)=O)CC[C@]3(C)[C@H](CC[C@@H]4[C@@]5(C)CC=C(c6ccc(C(=O)O)cc6)C(C)(C)[C@@H]5CC[C@]43C)[C@@H]12 [Example 2, 4-((1R,3aS,5aR,5bR,7aR,11aS,11bR,13aR,13bR)-3a-(2-((1S,4S)-2,2-dioxido-2-thia-5-azabicyclo[2.2.1]heptan-5-yl)acetamido)-5a,5b,8,8,11a-pentamethyl-1-(prop-1-en-2-yl)-2,3,3a,4,5,5a,5b,6,7,7a,8,11,11a,11b,12,13,13a,13b-octadecahydro-1H-cyclopenta[a]chrysen-9-yl)benzoic acid] |  | 1.93 nM |  |
| C=C(C)[C@@H]1CC[C@]2(NC(=O)CN3C[C@@H]4C[C@H]3CN4Cc3ccccc3)CC[C@]3(C)[C@H](CC[C@@H]4[C@@]5(C)CC=C(c6ccc(C(=O)O)cc6)C(C)(C)[C@@H]5CC[C@]43C)[C@@H]12 [Example 3, 4-((1R,3aS,5aR,5bR,7aR,11aS,11bR,13aR,13bR)-3a-(2-((1S,4S)-5-benzyl-2,5-diazabicyclo[2.2.1]heptan-2-yl)acetamido)-5a,5b,8,8,11a-pentamethyl-1-(prop-1-en-2-yl)-2,3,3a,4,5,5a,5b,6,7,7a,8,11,11a,11b,12,13,13a,13b-octadecahydro-1H-cyclopenta[a]chrysen-9-yl)benzoic acid] | < 100 nM |  |  |
| CC(C)[C@@H]1CC[C@]2(NC(=O)CN3C[C@@H]4C[C@H]3CS4(=O)=O)CC[C@]3(C)[C@H](CC[C@@H]4[C@@]5(C)CC=C(c6ccc(C(=O)O)cc6)C(C)(C)[C@@H]5CC[C@]43C)[C@@H]12 [Example 4, 4-((1S,3aS,5aR,5bR,7aR,11aS,11bR,13aR,13bR)-3a-(2-((1S,4S)-2,2-dioxido-2-thia-5-azabicyclo[2.2.1]heptan-5-yl)acetamido)-1-isopropyl-5a,5b,8,8,11a-pentamethyl-2,3,3a,4,5,5a,5b,6,7,7a,8,11,11a,11b,12,13,13a,13b-octadecahydro-1H-cyclopenta[a]chrysen-9-yl)benzoic acid] | < 100 nM |  |  |

Reference: US8889854B2, “C-17 bicyclic amines of triterpenoids with HIV maturation inhibitory activity” (priority 2012, dated 2014)
